Results as given in ChEMBL document CHEMBL1629594, “Identification of a novel trimethoprim resistance gene, dfrK, in a methicillin-resistant Staphylococcus aureus ST398 strain and its physical linkage to the tetracycline resistance gene tet(L)” (2009).
Converted amounts (≈) assume the structure as drawn.

system: Staphylococcus aureus; test: Antibacterial activity against methicillin-resistant Staphylococcus aureus ST398; format: functional

Structure (SMILES) | MIC
CC1(C)S[C@@H]2[C@H](NC(=O)[C@H](N)c3ccccc3)C(=O)N2[C@H]1C(=O)O [AMPICILLIN] | 8 µg/mL (≈ 22.9 µM)
Cc1onc(-c2ccccc2)c1C(=O)N[C@@H]1C(=O)N2[C@@H]1SC(C)(C)[C@@H]2C(=O)O [OXACILLIN] | 8 µg/mL (≈ 19.9 µM)
CC1(C)S[C@@H]2[C@H](NC(=O)Cc3ccccc3)C(=O)N2[C@H]1C(=O)O [PENICILLIN G] | 8 µg/mL (≈ 23.9 µM)
CN(C)[C@@H]1C(O)=C(C(N)=O)C(=O)[C@@]2(O)C(O)=C3C(=O)c4c(O)cccc4[C@@](C)(O)[C@H]3C[C@@H]12 [TETRACYCLINE] | 64 µg/mL (≈ 144 µM)
COc1cc(Cc2cnc(N)nc2N)cc(OC)c1OC [TRIMETHOPRIM] | > 256 µg/mL

system: Escherichia coli; test: Antibacterial activity against Escherichia coli JM109 expressing Bgl2

Structure (SMILES) | MIC
COc1cc(Cc2cnc(N)nc2N)cc(OC)c1OC [TRIMETHOPRIM] | ≥ 512 µg/mL
